The values that follow come from ChEMBL document CHEMBL3352429, “A review on recent developments of indole-containing antiviral agents” (Eur J Med Chem, 2015).

In brackets after ≈: the same amount, converted by molar mass. Where a name gives a salt, the structure may show the parent alone.

Data set [1] concerns the target T1, Human immunodeficiency virus type 1 integrase (Human immunodeficiency virus 1, UniProt Q7ZJM1). As to the kind of experiment: Inhibition of HIV-1 integrase.
Data set [2] is described as follows: Therapeutic index, ratio of CC50 for human C8166 cells to EC50 for HIV-1 3B. Conditions: read-out: Ratio CC50/EC50. It is filed as cell-based.
The test system of data set [3] is Human immunodeficiency virus 1. As to the kind of experiment: Antiviral activity against wild type HIV1 3B infected in human C8166 cells assessed as cytopathic effect by counting the number of syncytia. Conditions: Human immunodeficiency virus 1, 3B. It is filed as functional, organism-based. On the technique in general: Cytopathic effects are the visible damage that an infection or toxin causes in cultured cells.

The nature of data set [4]: Inhibition of HIV-1 integrase LEDGF/p75 (unknown origin) interaction. Set-up: species or system Human immunodeficiency virus 1.
In data set [5] the test system is Human immunodeficiency virus 1. Put plainly: Antiviral activity against wild type HIV1 3B infected in human MT-2 cells assessed as protection of infected cells by MTT colorimetric method. Type of data set: functional, organism-based. Conditions: Human immunodeficiency virus 1, 3B, MT2. On the technique in general: Formazan colour is commonly taken as a measure of viable cells.

The subject of data set [6] is Human immunodeficiency virus 1. Put plainly: Antiviral activity against HIV-1 3B infected in human TZM-bl cells. Type of data set: functional, organism-based. Conditions: Human immunodeficiency virus 1, 3B.
A short description of data set [7]: Cytotoxicity against human TZM-bl cells. It is filed as cell-based.
Data set [8] in a line: Selectivity index, ratio of CC50 for human TZM-bl cells to EC50 for HIV-1 3B. Type of data set: toxicity, cell-based. As to conditions: read-out: Ratio CC50/EC50.
Data set [9] addresses T1, Human immunodeficiency virus type 1 integrase. Put plainly: Inhibition of HIV-1 integrase strand transfer activity.
Data set [10] relates to Human immunodeficiency virus 1. Put plainly: Antiviral activity against HIV1. Type of data set: functional, organism-based.
In the next data set the test system is Human alphaherpesvirus 2. As to the kind of experiment: Antiviral activity against Herpes simplex virus type 2. Type of data set: functional, organism-based.
In a further data set the test system is Human alphaherpesvirus 1. As to the kind of experiment: Antiviral activity against Herpes simplex virus type 1. It is filed as functional, organism-based.
For data set [11], the system named is Human immunodeficiency virus 1. Put plainly: Antiviral activity against HIV1 infected in human peripheral blood leukocyte cells assessed as inhibition of replication. It is filed as functional, organism-based.
Data set [12] in a line: Cytotoxicity against human peripheral blood leukocyte cells at 100 uM. Type of data set: cell-based.
[13] abbreviates: read-out: ID50 (the source's name).

Usually EC50 stands for the midpoint of the concentration-response curve. As a reminder, the CC50 is the concentration that lowers cell viability or growth by half. A low value points to greater toxicity to the cells.

T1 sequence (Q7ZJM1 whole entry): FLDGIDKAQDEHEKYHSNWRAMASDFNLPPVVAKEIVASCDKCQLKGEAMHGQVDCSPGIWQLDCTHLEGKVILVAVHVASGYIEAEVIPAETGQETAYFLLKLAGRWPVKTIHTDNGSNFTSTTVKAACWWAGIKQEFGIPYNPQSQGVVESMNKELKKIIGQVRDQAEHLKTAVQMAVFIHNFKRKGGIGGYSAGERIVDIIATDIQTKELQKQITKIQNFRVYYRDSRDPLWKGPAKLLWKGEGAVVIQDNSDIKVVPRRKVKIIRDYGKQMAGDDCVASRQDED

The compound `Cc1cc(C)cc(Cn2cc(C(=O)/C=C(\O)C(=O)O)c3c(O)cccc32)c1` gave an IC50 in data set [1] of 3.5 µM.
For `O=[N+]([O-])c1ccccc1-n1ccc2ccccc21`, in [2], the selectivity ratio is 24.6. Moreover, the EC50 in data set [3] is 7.88 µg/mL (≈ 33.1 µM).
Consider `COc1cccc2c1c(C(=O)/C=C(\O)C(=O)O)cn2Cc1ccc(F)cc1`, for which the IC50 in [4] came out at 36 µM.
With `O=c1ccn(CCOc2ccccc2Oc2cccc3[nH]ccc23)c(=O)[nH]1`, in data set [5], the half-maximal effective concentration (EC50) was determined as 0.085 µM.
`CCOC(=O)C(O)(c1c[nH]c2ccc([N+](=O)[O-])cc12)C(F)(F)F` (stereo not given) gave a 50% effective concentration (EC50) in data set [6] of 0.019 µM. In data set [7], this compound came in with a half-maximal cytotoxic concentration (CC50) of 211 µM. Further, the selectivity ratio in data set [8] stood at 11.1.
As for `O=[N+]([O-])c1ccc2c(ccn2-c2ccccc2[N+](=O)[O-])c1`, in data set [2], the selectivity ratio came to 24.6. Also, the concentration for a half-maximal effect (EC50) in data set [3] is 7.88 µg/mL (≈ 27.8 µM).
In the case of `Cc1cn(-c2ccc([N+](=O)[O-])cc2)c2ccccc12`, the selectivity ratio in [2] stood at 24.6. For the same compound, the half-maximal effective concentration (EC50) in data set [3] was found to be 7.88 µg/mL (≈ 31.2 µM).
Take `COc1cccc2c1c(C(=O)/C=C(\O)C(=O)O)cn2Cc1cc(C)cc(C)c1`: in data set [9], the IC50 was 5.49 µM. Moreover, the response in data set [10] was half-maximal at 4.63 µM (EC50).
`CC(C)CC(=O)[C@@H](O)Cc1c[nH]c2ccccc12`: the figures for the IC50 in the data set with Human alphaherpesvirus 2 (setting [13]) and with Human alphaherpesvirus 1 (setting [13]) were 1.5 µg/mL and 1.5 µg/mL (≈ 6.11 µM), respectively.
In the case of `C[C@H]1c2nc(N)[nH]c2[C@]2(O)C[C@H]1c1c(-c3cnc(-c4c[nH]c5cc(Br)ccc45)c(=O)[nH]3)c[nH]c1C2=O`, the 50% effective concentration (EC50) in data set [10] is 0.91 µM; in the data set with Human alphaherpesvirus 1, 95.8 µM.
Consider `O=C(/C=C/c1c[nH]c2c(O)cccc12)N/C=C/c1c[nH]c2ccccc12`, for which the IC50 with Human alphaherpesvirus 2 (read-out: IC50) is 1 µM.
For the compound `COc1ccc2c(c1)N=CN1CCc3c([nH]c4ccccc34)C3=NCC[C@@]321`, the EC50 in [10] was found to be 0.02 µM.
In data set [10], `COc1ccc2c3c([nH]c2c1)C1=NCC[C@]12c1ccccc1N=CN2CC3` returned a half-maximal effective concentration (EC50) of 0.95 µM.
Consider `CCNc1cccnc1N1CCN(C(=O)c2cc3cc(OC)ccc3[nH]2)CC1` [ATEVIRDINE MESYLATE], for which the IC50 in [11] turned out to be 0.001 µM. In addition, the Activity in data set [12] stood at 50%.
Regarding `O=C(/C=C/c1c[nH]c2ccccc12)N/C=C/c1c[nH]c2ccccc12` [CHONDRIAMIDE A], in the data set on Human alphaherpesvirus 2 (read-out: IC50), the IC50 came to 1 µM.
`O=C(/C=C/c1c[nH]c2ccccc12)N/C=C\c1c[nH]c2ccccc12` [CHONDRIAMIDE C]: in the data set with Human alphaherpesvirus 2 (read-out: IC50), the IC50 came out at 1 µM.
